Test results reported in US9623008B2, “Targeting abnormal DNA repair in therapy-resistant breast and pancreatic cancers” (STC.UNM, priority 2012, dated 2017).
“Also recorded” adds a separate entry of the source. Read-outs that look alike come from different tables or passages of the source.

Assays:
Assay type in all cases: cell-based
[1] = tested on: MCF7 cells following siRNA knockdown of Ku70; test: Colony survival assay, MCF7 after siRNA knockdown of Ku70; settings: Ku70 knockdown versus siRNA control, 1 μmol/L, 10-day growth
Experimental: (§1) Cells were seeded at a density of 1,000 cells per well in methylcellulose-based medium in the presence of DNA ligase I/III inhibitor, L67 (0.5 μmol/L; ref. 10); PARP inhibitor, ABT888 (0.125 μmol/L); or L67 (0.5 μmol/L) and ABT888 (0.125 μmol/L) for approximately 10 days. Colonies were stained with 2-(4-iodophenyl)-3-(4-nitrophenyl)-5-phenlytetrazolium chloride (1 mg/mL) for 16 to 24 hours before evaluation. Vital colonies were counted with an automated image analysis system (Omincon FAS IV, BIOSYS GmbH). Experiments were conducted at least 3 times, and results are representative of the mean of 3 independent experiment ±SEM.
Target plus SMART pool siRNA oligonucleotides for G22P1, DNA ligase III, and Ku70 mRNAs were purchased from Dharmacon RNA Technologies. The oligonucleotides were transiently transfected into cells with Amaxa Nucleofector Kit V (VCA-1003) in Nucleofector II Amaxa Biosystems. For transfection, […] of 20 μmol/L siRNA was used per 2×10^6 cells. […] Cells were harvested for Western blotting 72 hours after transfection. siRNA nontargeting pool (Dharmacon RNA Technologies) was used as a control.

[2] = tested on: tumorigenic cell lines (MCF7, TAM1, TAM2, TAM3, LTLT); test: Colony survival assay, MCF7 and therapy-resistant derivatives; settings: L67 0.5 μmol/L or ABT888 0.125 μmol/L alone, 10-day growth, compared with MCF10A
Experimental: as §1

MCF10A = test: MTT cell proliferation assay, MCF10A; settings: single agents, 72 hours, read-out: IC50, growth
Experimental: (§2) Cells were grown in 96-well plates with DNA ligase I/III inhibitor L67 (up to 60 μmol/L) and/or the PARP inhibitor ABT888 (up to 80 μmol/L) for 72 hours. Approximately 20 hours prior to evaluation, MTT labeling reagent (MTT in PBS; Roche) was added to each well. After incubating for 4 hours with the MTT labeling reagent, solubilization solution (10% SDS in 0.01 mol/L HCl; Roche) was added to solubilize the formazan salt crystals. The results were spectrophotometrically quantified by a VersaMax Microplate Reader at a wavelength of 550 nm and a reference wavelength of 650 nm. The effect of combining the DNA repair inhibitors was analyzed by determining the combination index (CI) described by Chou and Talalay (18, 19) with Calcusyn software (version 2.0; Biosoft). This calculation takes into account of both potency (median dose, Dm or IC50) and the shape of the dose-effect curve (the m value) to calculate the CI. L67 and ABT888 were combined at fixed ratios of doses that corresponded to 0.0001, 0.001, 0.005, 0.01, 0.05, 0.1, 0.5, 1, and 10 times the individual IC50 values. Synergy, additivity, and antagonism are defined as CI<1, CI ¼ 1, and CI>1, respectively.

breast cancer cell lines = test: MTT cell proliferation assay, breast cancer cell lines; settings: single agents, all the breast cancer cell lines, 72 hours; read-out: IC50, growth and viability
Experimental: as §2

Row | Structure (SMILES) | sensitivity (colony survival) [1] | colony survival, inhibitor alone [2] | IC50 (MCF10A) | IC50 (breast cancer cell lines) | IC50 (MCF10A; Homo sapiens, MCF-10A)
1 | N#Cc1ccc(C(c2ccc(C#N)cc2)n2cncn2)cc1 [letrozole] | decreased sensitivity | – | – | – | –
2 | CC/C(=C(\c1ccccc1)c1ccc(OCCN(C)C)cc1)c1ccccc1 [tamoxifen] | decreased sensitivity | – | – | – | –
3 | Cc1c(Br)cc(NCC(=O)NN=Cc2cc([N+](=O)[O-])ccc2O)cc1Br [L67] | – | small reductions; also recorded: little effect | ~6 µM | ~6 µM | –
4 | C[C@]1(c2nc3c(C(N)=O)cccc3[nH]2)CCCN1 [ABT888, Veliparib] | – | small reductions | – | ~8 µM | ~10 µM
